{"source": "patent US9012507B2", "about": "“Lipid-lowering antidiabetic agent” (Thetis Pharmaceuticals LLC, priority 2011, dated 2015)", "key": {"physchem": {"test": "physchem", "procedure": "Measurement of the water solubility of the test compounds is accomplished by using methods well known to those skilled in the art. […] The total volume of the solution is measured. […] This is a clear indication of an unexpectedly high degree of bioavailability of the compositions of the invention. Highly water soluble medicinal preparations, when administered orally, result in efficient absorption of such preparations from the gastrointestinal tract into systemic circulation. Such preparations permit rapid absorption into the blood stream resulting in a high concentration of the active agent in the blood. Furthermore, water soluble preparations are especially suitable for parenteral administration, for example, intravenous administration."}, "[1]": {"test": "Air and light sensitivity observed on isolation and storage", "assay_type": "physicochemical", "conditions": "isolated solid; therefore stored in an amber vial under nitrogen", "procedure": "The reaction flask was covered in foil to protect it from light. After stirring for 1 h at room temperature, the mixture was chilled to 0° C. for 1 h, and then filtered under an atmosphere of nitrogen. The solid was washed with 50 mL ice-cold acetonitrile and then quickly transferred to a foil-covered round bottom flask and placed under high vac."}}}
{"smiles": "CC/C=C\\C/C=C\\C/C=C\\C/C=C\\C/C=C\\CCCC(=O)O", "note": "[EPA, (5Z,8Z,11Z,14Z,17Z)-eicosa-5,8,11,14,17-pentaenoic acid, reference compound]", "values": [{"measurement": "solubility", "setting": "physchem; water, thermodynamic from solid", "result": "< 200", "unit": "µg/mL"}]}
{"smiles": "CC/C=C\\C/C=C\\C/C=C\\C/C=C\\C/C=C\\CCCC(=O)O.CN(C)C(=N)NC(=N)N", "note": "[Example 1, {[Amino(imino)methyl]amino}(dimethylamino)methaniminium (5Z,8Z,11Z,14Z,17Z)-eicosa-5,8,11,14,17-pentaenoate]", "values": [{"measurement": "times more soluble in water than EPA", "setting": "physchem; ratio of water solubility versus EPA itself", "result": "≥ 250", "unit": "times"}, {"measurement": "sensitivity to air and light", "setting": "[1]", "result": "air and light sensitive"}]}
